Laboratory results: ChEMBL document CHEMBL1857833, “Screening and optimization of specific chemical series against human African Trypanosomiasis (HAT)”
In brackets after ≈: the same amount, converted by molar mass. Several values for one entry are separate records, joined by “and”; a condition that tells them apart may be missing. Equal values may be shown once.

Assays:
[1] = DNDI: Cytotoxicity against L929 mouse fibroblasts, CYTO-SP, 24 hour; assay type: toxicity, cell-based; settings: mouse, L929 mouse fibroblasts
[2] = DNDI: Cytotoxicity against L929 mouse fibroblasts, 72 hour.; assay type: toxicity, cell-based; settings: mouse, L929 mouse fibroblasts
Trypanosoma brucei = assay: DNDI: Inhibition of Human African Trypanosomiasis, SBRI 427, in vitro; assay type: functional, organism-based
[3] = mouse, microsomes, 1 µM
Description: DNDI: in vitro intrinsic clearance in mouse liver microsomes at a concentration of 1uM

in vitro = settings: mouse, liver microsomes, t (1 / 2)
Description: DNDI: half life in mouse liver microsomes at a concentration of 1uM

[4] = DNDI: Lipophilicity measured in Chromatographic hydrophobicity index (CHI) assay, pH 7.4; assay type: physicochemical; settings: buffer
[5] = DNDI: Solubility in phosphate buffered saline at pH7.4 measured by nephelometry at room temperature (NEPH-RT); assay type: physicochemical; settings: pH 7.4
[6] = Trypanosoma brucei, SBRI 427, read-out: IC50

Row | Compound | IC50 at 24 h [1] [µg/mL] | IC50 at 72 h [2] [µg/mL] | IC50 (Trypanosoma brucei; [6]) [µg/mL] | CLint in vitro [3] [µL/min/mg] | half-life at 1 µM (in vitro) [min] | chromatographic logD [4] | solubility kinetic [5] [µM] | IC50 (Trypanosoma brucei)
1 | CCCCCC(C)NCc1coc(-c2ccc(OCCC)cc2)n1 (stereo not given) | 27.5 (≈ 83.4 µM) | < 3.13 | 0.54 (≈ 1.63 µM) | 31 | 27 | – | – | –
2 | CCc1ccccc1/C(=N\O)NC1CCCCC1 | > 50 | – | 3.58 (≈ 14.5 µM) | 128 | 7 | – | – | –
3 | Cc1ccc(CNC(c2nc(-c3ccccc3)c(N3CCCCC3)o2)C2CC2)cc1 (stereo not given) | – | > 10 | 4.56 (≈ 11.4 µM) | – | – | > 5.2 | 3 (≈ 1.2 µg/mL) | –
4 | CCCCCC(C)NCc1coc(-c2ccc(OCc3ccccc3)cc2)n1 (stereo not given) | – | 1.41 (≈ 3.73 µM) | 0.55 (≈ 1.45 µM) | 9 | 97 | – | 1 (≈ 0.379 µg/mL) | –
5 | CCCCCOc1ccc(-c2nc(CNC3[C@H]4C[C@@H]5C[C@@H](C[C@H]3C5)C4)co2)cc1 (stereo not given in full) | > 50 | < 3.13 | 0.3 (≈ 0.76 µM) | 27 | 32 | – | – | –
6 | CCCCCC(C)NCc1coc(-c2ccc(OCC(C)(C)C)cc2)n1 (stereo not given) | – | 0.65 (≈ 1.81 µM) | 0.19 (≈ 0.53 µM) | 12 | 70 | – | 6 (≈ 2.15 µg/mL) | –
7 | CC(C)CNC(CCc1ccccc1)c1nc(Cc2ccccc2)c(N2CCCCC2)o1 (stereo not given) | – | > 10 | > 5 | 307 | 3 | – | 6 (≈ 2.59 µg/mL) | –
8 | CC(C)(C)c1ccc(Oc2ncccc2/C(=N/O)NC2CCCCC2)cc1 | – | > 10 | 0.07 (≈ 0.19 µM) | 95 | 9 | – | 13 (≈ 4.78 µg/mL) | –
9 | CCCOc1ccc(-c2nc(CN[C@@H]3C[C@@H]4C[C@H]([C@H]3C)C4(C)C)co2)cc1 | 15.7 (≈ 42.7 µM) | < 3.13 | 0.49 (≈ 1.33 µM) | 30 | 28 | – | – | –
10 | CCc1ccccc1N/C(=N\O)c1ccc(OC)cc1 | > 50 | – | > 5 | 397 | 2 | – | – | –
11 | O/N=C(\NC1CCCCC1)c1ccc(-c2ccccc2)cc1 | 36 (≈ 122 µM) | – | > 5 | 280 | 3 | – | – | –
12 | CCCCCC(C)NCc1coc(-c2ccc(OCc3ccc(Cl)cc3)cc2)n1 (stereo not given) | – | 1.67 (≈ 4.04 µM) | 0.47 (≈ 1.14 µM) | 21 | 41 | – | – | –
13 | O=C(NC1CCCCC1)c1ccccc1-c1ccccc1 | > 50 | – | > 5 | 116 | 7 | – | – | –
14 | CCCCCC(C)NCc1coc(-c2ccc(C3CCCCC3)cc2)n1 (stereo not given) | – | 0.67 (≈ 1.89 µM) | 0.22 (≈ 0.621 µM) | 4 | 232 | – | – | –
15 | CCCCCC(C)NCc1coc(-c2ccc(C)c(OC)c2)n1 (stereo not given) | – | 5.27 (≈ 16.7 µM) | 1.6 (≈ 5.06 µM) | 87 | 10 | – | – | –
16 | Cc1cccc(C)c1/C(=N/O)NC1CCCCC1 | > 50 | – | > 5 | 76 | 11 | – | – | –
17 | CCc1ccccc1N/C(=N\O)c1ccccc1-c1ccccc1 | 16.3 (≈ 51.5 µM) | – | > 5 | 209 | 4 | – | – | –
18 | CCCCc1ccc(-c2nc(CNC(C)CC)co2)cc1 (stereo not given) | – | 2.75 (≈ 9.6 µM) | 0.74 (≈ 2.58 µM) | 42 | 20 | – | – | –
19 | CCCCCC(C)NCc1coc(-c2ccc(OCCOCC)cc2)n1 (stereo not given) | – | 5.78 (≈ 16 µM) | 1.57 (≈ 4.36 µM) | 42 | 20 | – | – | –
20 | CCC(C)C(NCc1ccccc1OC)c1nc(-c2ccccc2)c(N2CCOCC2)o1 (stereo not given) | – | > 10 | 4.06 (≈ 9.32 µM) | 440 | 2 | – | 6 (≈ 2.61 µg/mL) | –
21 | CC(C)Oc1ccc(-c2nc(CNC[C@@H]3CC[C@H]4C[C@@H]3C4(C)C)co2)cc1 | – | 1.36 (≈ 3.69 µM) | 1.06 (≈ 2.88 µM) | 45 | 19 | – | – | –
22 | CCCCc1ccc(-c2nc(CNCc3cccnc3)co2)cc1 | – | > 10 | > 5 | 44 | 19 | – | – | –
23 | CCCCCC(C)NCc1coc(-c2cccc(Oc3ccccc3)c2)n1 (stereo not given) | – | 1.76 (≈ 4.83 µM) | 1.14 (≈ 3.13 µM) | 14 | 63 | – | – | –
24 | CCCCCC(C)NCc1coc(-c2ccc(OCc3ccc(C)cc3)cc2)n1 (stereo not given) | – | 1.27 (≈ 3.24 µM) | 0.31 (≈ 0.79 µM) | 13 | 64 | – | – | –
25 | CCC(C)C(NCc1ccc(C)cc1)c1nc(Cc2ccccc2)c(N2CCOCC2)o1 (stereo not given) | – | > 10 | 2.61 (≈ 6.02 µM) | 378 | 2 | – | 6 (≈ 2.6 µg/mL) | –
26 | Cc1ccc(/C(=N/O)Nc2cccc(F)c2)c(Oc2ccc(C(C)(C)C)cc2)n1 | – | 5.39 (≈ 13.7 µM) | 0.32 (≈ 0.813 µM) | 31.75 | 26.8 | – | – | –

Row | Compound | IC50 at 24 h [1] [µg/mL] | IC50 at 72 h [2] [µg/mL] | IC50 (Trypanosoma brucei; [6]) [µg/mL] | CLint in vitro [3] [µL/min/mg] | half-life at 1 µM (in vitro) [min] | chromatographic logD [4] | solubility kinetic [5] [µM] | IC50 (Trypanosoma brucei)
27 | CCCCCC(C)NCc1coc(-c2ccc(OCCc3ccccc3)cc2)n1 (stereo not given) | – | 0.72 (≈ 1.83 µM) | 0.39 (≈ 0.994 µM) | 39 | 22 | – | – | –
28 | Cc1ccc(CNC(c2ccccc2)c2nc(Cc3ccccc3)c(N3CCOCC3)o2)cc1 (stereo not given) | – | > 10 | 4.86 (≈ 10.7 µM) | – | – | – | 6 (≈ 2.72 µg/mL) | –
29 | CCCCCOc1ccc(-c2nc(CNC3CCCCCC3)co2)cc1 | 29.5 (≈ 82.8 µM) | < 3.13 | 0.25 (≈ 0.701 µM) | 8 | 101 | – | – | –
30 | CCCCCC(C)NCc1coc(-c2ccc(Oc3ccc(OC)cc3)cc2)n1 (stereo not given) | – | 5.61 (≈ 14.2 µM) | 1.29 (≈ 3.27 µM) | 25 | 34 | – | – | –
31 | Cc1cccc(CNC(c2ccccc2)c2nc(Cc3ccccc3)c(N3CCOCC3)o2)c1 (stereo not given) | – | > 10 | 5 (≈ 11 µM) | 217 | 4 | – | – | –
32 | CCc1ccc(Oc2ncccc2/C(=N\O)NC2CCCC[C@H]2N)cc1 (stereo not given in full) | – | > 10 | > 5 | 2 | 353 | – | – | –
33 | Cc1ccc(Cc2ccccc2/C(=N/O)NC2CCCCC2)cc1 | – | 3.48 (≈ 10.8 µM) | 1.17 (≈ 3.63 µM) | 318 | 3 | – | – | –
34 | CCCCCC(C)NCc1coc(-c2ccc(C(C)C)cc2)n1 (stereo not given) | – | 1.33 (≈ 4.23 µM) | 0.6 (≈ 1.91 µM) | 36 | 24 | – | 3 (≈ 0.943 µg/mL) | –
35 | CCCCCC(C)NCc1coc(-c2cc(OC)cc(OC)c2)n1 (stereo not given) | – | 4.75 (≈ 14.3 µM) | 1.25 (≈ 3.76 µM) | – | – | – | 6 (≈ 1.99 µg/mL) | –
36 | CCC(C)C(NCc1ccco1)c1nc(-c2ccccc2)c(N2CCCCC2)o1 (stereo not given) | – | > 10 | 4.9 (≈ 12.5 µM) | 206 | 4 | – | – | –
37 | CC(C)Oc1ccc(-c2nc(CN[C@@H]3C[C@@H]4C[C@H]([C@H]3C)C4(C)C)co2)cc1 | – | 1.9 (≈ 5.16 µM) | 1.37 (≈ 3.72 µM) | 11 | 79 | – | – | –
38 | Cc1ccc(CNC(c2nc(Cc3ccccc3)c(N3CCOCC3)o2)C2CCCCC2)cc1 (stereo not given) | – | > 10 | 2.45 (≈ 5.33 µM) | 236 | 4 | – | 3 (≈ 1.38 µg/mL) | –
39 | COc1ccccc1CNC(c1nc(-c2ccccc2)c(N2CCOCC2)o1)C1CC1 (stereo not given) | – | > 10 | 5 (≈ 11.9 µM) | 300 | 3 | – | – | –
40 | O/N=C(\NC1CCCCC1)c1cccnc1Oc1c(F)cccc1F | > 50 | > 10 | 0.46 (≈ 1.32 µM) | 351 | 2 | – | – | 0.48 µg/mL (≈ 1.38 µM)
41 | O/N=C(/NC1CCCCC1)c1cccnc1Oc1ccc(Cl)cc1 | – | > 10 | 0.93 (≈ 2.69 µM) | 367 | 2 | – | – | –
42 | CCOCCCNC(c1nc(-c2ccccc2)c(N2CCCCC2)o1)C(C)CC (stereo not given) | – | 4.44 (≈ 11.1 µM) | 2.72 (≈ 6.81 µM) | 255 | 3 | – | – | –
43 | CCCCCC(C)NCc1coc(Cc2ccc(OC)cc2)n1 (stereo not given) | – | 10 (≈ 31.6 µM) | 3.24 (≈ 10.2 µM) | 55 | 16 | – | – | –
44 | CCCCCC(C)NCc1coc(-c2ccc(Oc3ccc(F)cc3)cc2)n1 (stereo not given) | – | 1.63 (≈ 4.26 µM) | 0.44 (≈ 1.15 µM) | 13 | 63 | – | – | –
45 | COc1ccc(N/C(=N/O)c2ccc(OC)cc2)cc1 | > 50 | – | > 5 | 376 | 2 | – | – | –
46 | FC(F)(F)c1ccc(CNC(c2nc(Cc3ccccc3)c(N3CCOCC3)o2)C2CC2)cc1 (stereo not given) | – | > 10 | 4.53 (≈ 9.61 µM) | – | – | – | 6 (≈ 2.83 µg/mL) | –
47 | COc1cccc(OC)c1CNCc1coc(-c2ccc(C(C)(C)C)cc2)n1 | 43.2 (≈ 114 µM) | 2.07 (≈ 5.44 µM) | – | – | – | – | 1 (≈ 0.38 µg/mL) | 1.43 µg/mL and 0.89 µg/mL and 2.17 µg/mL
48 | COc1ccc(N/C(=N/O)c2ccccc2-c2ccccc2)cc1 | > 50 | – | > 5 | 166 | 5 | – | – | –
49 | O/N=C(/NC1CCCCC1)c1cccnc1Oc1ccc(F)cc1 | – | > 10 | 1.4 (≈ 4.25 µM) | 389 | 2 | – | – | –
50 | CCCCc1ccc(-c2nc(CNC(C)C)co2)cc1 | – | 5.7 (≈ 20.9 µM) | 2.22 (≈ 8.15 µM) | 50 | 17 | – | – | –
51 | CCCCc1ccc(-c2nc(CN3CCOCC3)co2)cc1 | – | > 10 | > 5 | 348 | 2 | – | – | –
